According to publication PMC11813584, “An odorant-binding protein functions in fire ant social immunity interfacing with innate immunity” (Open Biology, 2025):
“Also recorded” adds a separate entry of the source. Where two headings read alike, the source gives them in different places.

Tests used:
SiOBP15 = SiOBP15 (Solenopsis invicta, UniProt F1DI94); test: 1-NPN fluorescent binding / competition (displacement) assay, purified SiOBP15; conditions: for binding to SiOBP15 (in words): 1-NPN competition, SiOBP15 alone
Method: (§1) The ORFs corresponding to SiOBP15, SiApoLp-III and SiFABP5 were separately cloned into the pET28a expression vector as His-tag fusion proteins. The integrity of plasmid constructs was verified by sequencing and plasmids were transformed into the Escherichia coli BL21 strain for heterologous protein expression. Proteins were purified using a nickel affinity (NI) resin (Ni-Sepharose Cl-6B agarose) according to the manufacturer’s protocol. Purified proteins were analysed by SDS–PAGE for purity and further confirmed by western blotting using an anti-His tag antibody as the probe. His-tags were removed by protease cleavage, and after determining final protein concentrations, aliquots of the purified protein samples were maintained at −80°C. Protein–protein interactions between SiOBP15 and SiApoLp-III and SiOBP15 and SiFABP5 were analysed using open surface plasmon resonance (SPR) by coupling the SiOBP15 protein (ligand) to a COOH chip until saturation. Purified SiFABP5 and SiApoLp-III proteins (analytes) were then added to analyse the kinetics of the interaction between these proteins. Binding kinetics were analysed by titration of the proteins. All experiments were performed three times with the same ‘chip’, and the entire experiment was repeated with three independent COOH-SiOBP15 chip. Dissociation constants were calculated using TraceDrawer (Ridgeview Instruments ab, Sweden) with a one-to-one interaction model.
(§2) N-phenyl-1-naphthylamine (1-NPN) was used as a probe for competition (displacement) based fluorescent binding assays as previously described. Samples were analysed using a Hitachi F-2000 fluorescence spectrophotometer at an excitation wavelength of 350 nm and an emission wavelength of 420 nm. The binding constant of the purified proteins to 1-NPN was determined over a substrate concentration range from 2 to 20 μM using 1.0 μM protein in 10 mM HEPES, 100 mM NaCl buffer, pH 7.5. Subsequent competition/displacement assays using test ligands were performed using a concentration of 2 μM 1-NPN, 2 μM protein and 2−40 μM test ligand. Dissociation constants (Kd) for 1-NPN were calculated by Scatchard plot analyses using GraphPad Prism 8 Software (GraphPad, La Jolla, CA, USA). The dissociation constants of test ligands (Kapp) in 1-NPN competition assays were calculated using the concentration of test ligand required to displace 50% of the 1-NPN signal (IC50) values using the following equation: Kapp = (IC50)/(1 + (1 − NPN)/K1 – NPN).

SiFABP5 = SiFABP5 (Solenopsis invicta, UniProt Z9HHL8OTK9); test: 1-NPN fluorescent binding / competition assay, purified SiFABP5; conditions: 1-NPN displacement; 2 μM 1-NPN, 2 μM protein; read-out: Kapp, competition, SiFABP5
Method: as §1, with “His-tags were removed by protease cleavage, and after determining final protein concentrations, aliquots of the purified protein samples were maintained at −80°C.” left out, “Purified SiFABP5 and SiApoLp-III proteins (analytes) were then added to analyse the kinetics of the interaction between these proteins.” left out, “All experiments were performed three times with the same ‘chip’, and the entire experiment was repeated with three independent COOH-SiOBP15 chip.” left out
(§3) N-phenyl-1-naphthylamine (1-NPN) was used as a probe for competition (displacement) based fluorescent binding assays as previously described. Samples were analysed using a Hitachi F-2000 fluorescence spectrophotometer at an excitation wavelength of 350 nm and an emission wavelength of 420 nm. […]

SiOBP15 + SiFABP5 = SiOBP15 + SiFABP5 (Solenopsis invicta, UniProt F1DI94+Z9HHL8OTK9); test: 1-NPN fluorescent binding / competition assay, SiOBP15 co-incubated with SiFABP5; conditions: 1-NPN displacement; co-incubation of SiOBP15 with SiFABP5; read-out: Kapp, competition, SiOBP15 + SiFABP5
Method: as §1, with “His-tags were removed by protease cleavage, and after determining final protein concentrations, aliquots of the purified protein samples were maintained at −80°C.” left out, “Purified SiFABP5 and SiApoLp-III proteins (analytes) were then added to analyse the kinetics of the interaction between these proteins.” left out, “All experiments were performed three times with the same ‘chip’, and the entire experiment was repeated with three independent COOH-SiOBP15 chip.” left out
as §3

SiOBP15 + SiApoLp III = SiOBP15 + SiApoLp III (Solenopsis invicta, UniProt F1DI94); test: 1-NPN fluorescent binding / competition assay, SiOBP15 co-incubated with SiApoLp-III
Method: as §1, §2

S. invicta workers = test: Dismemberment behavioural assay; assay type: in vivo, Solenopsis invicta; conditions: for dismemberment behaviour towards freeze-killed ants treated with the compound: healthy / untreated and GFP-RNAi workers, compared to freeze-killed control ants; for effect on behaviour: corpse-dismemberment of freeze-killed conspecifics treated with the chemical; for corpse dismemberment, RNAi targeting SiOBP15 + SiApoLp-III: dual RNAi; for corpse dismemberment, RNAi targeting SiOBP15 + SiApoLp-III / corpse dismemberment, RNAi targeting SiApoLp-III / corpse dismemberment, RNAi targeting SiFABP5 / corpse dismemberment, RNAi targeting SiOBP15 / corpse dismemberment, GFP RNAi (control) workers: freeze-killed corpses + chemical; for corpse dismemberment, RNAi targeting SiOBP15 + SiApoLp-III / corpse dismemberment, RNAi targeting SiApoLp-III / corpse dismemberment, RNAi targeting SiFABP5 / corpse dismemberment, RNAi targeting SiOBP15: compared to freeze-killed workers treated with the same chemical; for corpse dismemberment, GFP RNAi (control) workers: compared to freeze-killed, no additions
Method: Fresh corpses of workers killed by either rapid immersion in liquid nitrogen were collected and maintained at −80°C until use. Infection was performed by immersing workers for 5 s in 1 × 10^8 suspensions of fungal conidia. Infected workers were kept in isolated boxes until mortality (3–4 days) and were then used immediately for dismemberment assays. Each technical replicate of a dismemberment assay used five workers selected from different treatment groups (i.e. killed by freezing, killed by B. bassiana or subjected to another treatment as indicated). Of the five ‘killed’ workers, […] near the edge of the container in a ‘+’ pattern of a plastic container (9 cm diameter) and one in the centre. To each container was added 15 healthy workers or 15 workers treated as described below (e.g. RNAi treated). Containers contained an Eppendorf tube with a sterile solution of 5% sucrose. Corpse-dismemberment behaviour was assessed every 12 h for three consecutive days, and corpse limbs or other parts that were dismembered were counted. The corpse-dismemberment percentage was calculated by dividing the total number of dismembered parts (5 corpses × 10 body parts/each cage/3 days). Each experiment contained three technical replicates, and the entire experiment was repeated at least three times.
The specific dsRNA primers used in this study were synthesized using an in vitro transcription T7 kit (TAKARA, Dalian, China; electronic supplementary material, table S1). dsRNA concentrations were measured using a NanoVue Plus spectrophotometer (GE Healthcare Life Sciences, Little Chalfont, UK). In total, 50 nl of dsRNA of either the target genes or DsRNA-GFP (control) at indicated concentrations (up to 3000 ng μl^−1) were injected into each worker. Dismemberment assays were performed as above with three technical replicates, and each experiment was repeated at least three times using three different batches of ants. RNAi efficiencies was analysed by qRT-PCR.

[1] = 1-NPN displacement; co-incubation of SiOBP15 with SiApoLp-III; read-out: Kapp, competition, SiOBP15 + SiApoLp III
[2] = read-out: Kapp, competition, SiOBP15 + SiApoLp III; 1-NPN displacement; co-incubation of SiOBP15 with SiApoLp-III
[3] = 1-NPN displacement, 2 μM 1-NPN, 2 μM protein, 2-40 μM test ligand, read-out: Kapp, competition, SiOBP15

Chain of SiOBP15 + SiApoLp III (F1DI94 entry or part of it): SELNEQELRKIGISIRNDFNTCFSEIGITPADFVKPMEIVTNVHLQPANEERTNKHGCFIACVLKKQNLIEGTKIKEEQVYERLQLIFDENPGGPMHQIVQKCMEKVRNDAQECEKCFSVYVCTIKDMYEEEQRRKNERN
Chain of SiOBP15 + SiApoLp III (Q6B972 entry or part of it, further chain): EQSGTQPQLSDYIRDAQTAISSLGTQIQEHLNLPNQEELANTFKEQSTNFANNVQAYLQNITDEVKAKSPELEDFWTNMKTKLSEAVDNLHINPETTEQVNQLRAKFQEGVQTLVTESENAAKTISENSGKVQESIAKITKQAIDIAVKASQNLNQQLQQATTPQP
Chain of SiOBP15 (F1DI94 entry or part of it): as the sequence (F1DI94 entry or part of it) above
Chain of SiFABP5 (Z9HHL8OTK9 1-133): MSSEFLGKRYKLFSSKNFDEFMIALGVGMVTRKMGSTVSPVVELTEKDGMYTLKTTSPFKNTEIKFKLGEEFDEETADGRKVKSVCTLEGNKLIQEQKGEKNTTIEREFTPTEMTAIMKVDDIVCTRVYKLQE
Chain of SiOBP15 + SiFABP5 (F1DI94 23-162 limits assumed): as the sequence (F1DI94 entry or part of it) above
Chain of SiOBP15 + SiFABP5 (Z9HHL8OTK9 1-133): as the sequence (Z9HHL8OTK9 1-133) above

Row | Compound | binding to SiOBP15 (in words) (SiOBP15) | binding to SiOBP15 incubated with SiApoLp-III (in words) (SiOBP15 + SiApoLp III; 1-NPN competition, complex) | Ki (SiOBP15 + SiApoLp III; [1]) [µM] | Ki (SiOBP15; [3]) [µM] | dismemberment behaviour towards freeze-killed ants treated with the compound (S. invicta workers) | corpse dismemberment, RNAi targeting SiOBP15 + SiApoLp-III (S. invicta workers) | corpse dismemberment, RNAi targeting SiApoLp-III (S. invicta workers) | corpse dismemberment, RNAi targeting SiFABP5 (S. invicta workers) | corpse dismemberment, RNAi targeting SiOBP15 (S. invicta workers) | corpse dismemberment, GFP RNAi (control) workers (S. invicta workers) | also measured
1 | c1ccc(Nc2cccc3ccccc23)cc1 [1-NPN, N-phenyl-1-naphthylamine, reference compound] | – | – | – | – | – | – | – | – | – | – | Kd (SiOBP15; Kd of 1-NPN to SiOBP15 (printed in figure 2C), SiOBP15+NPN, unit inferred): 16.9 µM; Kd (SiOBP15; Kd of 1-NPN to SiOBP15, Scatchard analysis, 1.0 μM protein, 2 to 20 μM 1-NPN): 16.9 µM; Kd (SiOBP15 + SiApoLp III; read-out: dissociation constant of 1-NPN to SiOBP15 + SiApoLp-III; co-incubation; modelled to single 1-NPN binding sites): 18.2 µM
2 | CC(=O)C(C)=O [2,3 butanedione] | binds | limited binding | 70.9 | – | No significant effects | – | – | – | – | – | –
3 | CC1CCOC1=O (stereo not shown) [3-methyltetrahydro-2-furanone] | – | – | – | – | No significant effects | – | – | – | – | – | Ki (SiOBP15): 16 µM; Ki (SiOBP15 + SiApoLp III; [2]): 57.2 µM
4 | CCCCCCCCCCCCCCCCCCCCCC(=O)O [behenic acid] | – | – | – | – | significant increase; also recorded: induced dismemberment behaviour; also recorded: induces corpse-dismemberment | decreased^b | decreased^b | no change^b | slight decrease^b | increased^a | Ki (SiOBP15): 14 µM; Ki (SiOBP15 + SiApoLp III; [2]): 19.3 µM; effect on behaviour (S. invicta workers): induces dismemberment
5 | C=CC(=C)CCC=C(C)C [myrcene] | – | – | – | – | No significant effects | – | – | – | – | – | –
6 | CCCCCCCC/C=C\CCCCCCCC(=O)O [oleic acid] | able to bind | did not show binding | – | – | significant decrease; also recorded: reduced dismemberment behaviour; also recorded: inhibit this behaviour | no change^d | no change^d | no change^d | no change^d | decreased^a | Ki (SiOBP15): 15.5 µM; Ki (SiOBP15 + SiApoLp III; [2]): > 500 µM; effect on behaviour (S. invicta workers): inhibits dismemberment
7 | CCCCCCCCCCC/C=C/CCCCC(=O)O [trans-6-octadecenoic acid] | – | – | – | – | No significant effects | – | – | – | – | – | –

More lines, main results first:

Row | binding to SiOBP15 (in words) (SiOBP15) | binding to SiOBP15 incubated with SiApoLp-III (in words) (SiOBP15 + SiApoLp III; 1-NPN competition, complex) | Ki (SiOBP15 + SiApoLp III; [1]) [µM] | Ki (SiOBP15; [3]) [µM] | Compound | dismemberment behaviour towards freeze-killed ants treated with the compound (S. invicta workers) | corpse dismemberment, RNAi targeting SiOBP15 + SiApoLp-III (S. invicta workers) | corpse dismemberment, RNAi targeting SiApoLp-III (S. invicta workers) | corpse dismemberment, RNAi targeting SiFABP5 (S. invicta workers) | corpse dismemberment, RNAi targeting SiOBP15 (S. invicta workers) | corpse dismemberment, GFP RNAi (control) workers (S. invicta workers) | also measured
8 | able to bind | – | – | – | 3-octenol | – | – | – | – | – | – | Ki (SiFABP5): 15.7 µM; Ki (SiOBP15 + SiFABP5): 12.6 µM
9 | – | – | > 500 | 15.2 | CCCCC=CCCO [3-octenol] | – | – | – | – | – | – | –
10 | binds | limited binding | 83.3 | 26.5 | CC(=O)C(C)O (stereo not shown) [acetoin] | No significant effects | – | – | – | – | – | –
11 | able to bind | did not show binding | > 500 | 25.8 | CCCCC/C=C\C/C=C\CCCCCCCC(=O)O [linoleic acid, cis,cis-9,12-linoleic acid] | significantly reduced | increased^c | no change^c | increased^c | increased^c | decreased^a | effect on behaviour (S. invicta workers): inhibits dismemberment; dismemberment behaviour towards freeze-killed ants treated with the compound (S. invicta workers; listed as cis, cis-9,12-linoleic acid): inhibit this behaviour; dismemberment behaviour towards freeze-killed ants treated with the compound (S. invicta workers; listed as cis,cis-9,12-linoleic acid): significant decrease
12 | No binding | – | > 500 | > 500 | CCCCCCCC/C=C/CCCCCCCCCC(=O)O [trans-11-eicosenoic acid] | No significant effects; also recorded: did not alter dismemberment behaviour | no change^e | no change^e | no change^e | no change^e | no change^a | –
